Assay results from patent US20210177819A1, “METHODS AND COMPOSITIONS FOR MODULATING CALCIUM CHANNELS” (Northwestern University, priority 2005, published 2021).
“Also recorded” adds a separate entry of the source.

Tested on: SNc dopaminergic neurons
Experiment: Whole cell patch clamp recordings of pacemaking in dopaminergic neurons in brain slices
Assay type: cell-based, mouse

Which “effect of sustained blockade on pacemaking (altered pacemaking mechanism)” value (adult SNc dopaminergic neuron, before, during and after application, FIG. 4) does the source give for COC(=O)C1=C(C)NC(C)=C(C(=O)OC(C)C)C1c1cccc2nonc12 (stereo not drawn) [isradipine, 3,5-pyridinedicarboxylic acid, 4-(4-benzofurazanyl)-1,4-dihydro-2,6-dimethyl-, methyl 1-methylethyl ester] here?
The value was “altered pacemaking mechanism can be elicited; also recorded: restores pacemaking and dopaminergic neuron cell function through an altered pacemaking mechanism”.

How did the “effect on autonomous pacemaking of dopaminergic neurons” value (tissue slice from an adult, FIG. 1) turn out when COCCOC(=O)C1=C(C)NC(C)=C(C(=O)OC(C)C)C1c1cccc([N+](=O)[O-])c1 (stereo not drawn) [nimodipine, isopropyl 2-methoxyethyl 1,4-dihydro-2,6-dimethyl-4-(m-nitrophenyl)-3,5-pyridinedicarboxylate] was run?
Its value is “inhibits autonomous pacemaking of dopaminergic neurons”.

Which “effect of blockade of TTX sensitive sodium channels on spikes and oscillations” value does the source give for NC1=N[C@H](O)[C@H]2[C@H]3O[C@]4(O)O[C@@H]([C@@H](O)[C@@]2(N1)[C@@H]4O)[C@]3(O)CO [tetrodotoxin] here?
The value was “eliminates spikes but not the underlying oscillations that drive pacemaking”.
